# According to ChEMBL document CHEMBL1143804, “Synthesis and antibacterial evaluation of 1beta-methyl-2-[5-(1-methoxyimino-2-substituted sulfonamide ethyl)pyrrolidin-3-ylthio]carbapenems and their related compounds” (2007):
# Experiments:
# Klebsiella aerogenes = test: Antibacterial activity against Klebsiella aerogenes 1522E; assay type: functional
# Escherichia coli [1] = test: Antibacterial activity against Escherichia coli DC2; assay type: functional
# Staphylococcus aureus [2] = test: Antibacterial activity against Staphylococcus aureus 285; assay type: functional
# Enterobacter cloacae [3] = test: Antibacterial activity against Enterobactor cloacae 1321E; assay type: functional
# Streptococcus pyogenes [4] = test: Antibacterial activity against Streptococcus pyogenes 308A; assay type: functional
# Streptococcus pyogenes [5] = test: Antibacterial activity against Streptococcus pyogenes 77A; assay type: functional
# Staphylococcus aureus [6] = test: Antibacterial activity against Staphylococcus aureus SG511; assay type: functional
# Pseudomonas aeruginosa [7] = test: Antibacterial activity against Pseudomonas aeruginosa 9027; assay type: functional
# Salmonella typhimurium = test: Antibacterial activity against Salmonella Typhimurium; assay type: functional, Salmonella enterica subsp. enterica serovar Typhimurium; details: Salmonella enterica
# Escherichia coli [8] = test: Antibacterial activity against Escherichia coli TEM; assay type: functional
# Serratia marcescens [9] = test: Antibacterial activity against Serratia marcescens 370; assay type: functional
# Bacillus subtilis = test: Antibacterial activity against Bacillus subtilts ATCC 6633; assay type: functional
# Staphylococcus aureus [10] = test: Antibacterial activity against Staphylococcus aureus giorgio; assay type: functional
# Escherichia coli [11] = test: Antibacterial activity against Escherichia coil V6311/65; assay type: functional
# Pseudomonas aeruginosa [12] = test: Antibacterial activity against Pseudomonas aeruginosa 77/2; assay type: functional
# Priestia megaterium = test: Antibacterial activity against Bacillus megaterium; assay type: functional
# Streptococcus agalactiae = test: Antibacterial activity against Streptococcus agalactiae B; assay type: functional
# Escherichia coli [13] = test: Antibacterial activity against Escherichia coil 1507; assay type: functional
# Burkholderia cepacia = test: Antibacterial activity against Pseudomonas cepacia; assay type: functional
# Serratia marcescens [14] = test: Antibacterial activity against Serratia marcescens 6093; assay type: functional
# Providencia rettgeri [15] = test: Antibacterial activity against Proteus rettgeri 937; assay type: functional
# Serratia marcescens [16] = test: Antibacterial activity against Serratia marcescens 14273; assay type: functional
# Enterococcus durans = test: Antibacterial activity against Streptococcus durans D; assay type: functional
# [17] = Antibacterial activity against Salmonella oranienberg; assay type: functional, Salmonella enterica subsp. enterica serovar Oranienburg; details: Salmonella enterica
# Trueperella pyogenes = test: Antibacterial activity against Corynebacterium pyogenes; assay type: functional
# Escherichia coli [18] = test: Antibacterial activity against Escherichia coli 0114; assay type: functional
# Enterobacter cloacae [19] = test: Antibacterial activity against Enterobacter cloacae; assay type: functional
# Staphylococcus aureus [20] = test: Antibacterial activity against Staphylococcus aureus 503; assay type: functional
# Pseudomonas aeruginosa [21] = test: Antibacterial activity against Pseudomonas aeruginosa 880/2; assay type: functional
# Salmonella paratyphi = test: Antibacterial activity against Salmonella paratyphi A; assay type: functional, Salmonella enterica subsp. enterica serovar Paratyphi A; details: Salmonella enterica
# Enterobacter cloacae [22] = test: Antibacterial activity against Enterobacter cloacae 417; assay type: functional
# Staphylococcus aureus [23] = test: Antibacterial activity against Staphylococcus aureus 209P; assay type: functional
# Proteus mirabilis [24] = test: Antibacterial activity against Proteus mirabilis 112/3; assay type: functional
# Pasteurella multocida = test: Antibacterial activity against Pasteurella multocida; assay type: functional
# [25] = system: Corynebacterium diphtheriae; test: Antibacterial activity against Corynebacterium diphtheriae; assay type: functional
# Proteus mirabilis [26] = test: Antibacterial activity against Proteus mirabilis 174/3; assay type: functional
# Micrococcus luteus = test: Antibacterial activity against Micrococcus luteus ATCC 9341; assay type: functional
# Pseudomonas aeruginosa [27] = test: Antibacterial activity against Pseudomonas aeruginosa 110/2; assay type: functional
# Escherichia coli [28] = test: Antibacterial activity against Escherichia coli 0126; assay type: functional
# Klebsiella pneumoniae = test: Antibacterial activity against Klebsiella pneumonise 477; assay type: functional
# Escherichia coli [29] = test: Antibacterial activity against Escherichia coli 086; assay type: functional
# Enterococcus faecium = test: Antibacterial activity against Streptococcus faecium 77A; assay type: functional
# Proteus vulgaris = test: Antibacterial activity against Proteus vulgaris 868; assay type: functional
# [30] = Antibacterial activity against Salmonella give; assay type: functional, Salmonella enterica subsp. enterica serovar Give; details: Salmonella enterica
# Salmonella typhi = test: Antibacterial activity against Salmonella typhi; assay type: functional, Salmonella enterica subsp. enterica serovar Typhi; details: Salmonella enterica
# Providencia rettgeri [31] = test: Antibacterial activity against Proteus rettgeri 936; assay type: functional
# Salmonella = test: Antibacterial activity against Salmonella orion; assay type: functional
compound,measurement,setting,value
CCCNS(=O)(=O)NC/C(=N\OC)[C@@H]1C[C@H](SC2=C(C(=O)O)N3C(=O)[C@H]([C@@H](C)O)[C@H]3[C@H]2C)CN1,MIC,Klebsiella aerogenes,0.195 µg/mL
same,MIC,Escherichia coli [1],0.098 µg/mL
same,MIC,Staphylococcus aureus [2],0.195 µg/mL
same,MIC,Enterobacter cloacae [3],0.195 µg/mL
same,MIC,Streptococcus pyogenes [4],0.049 µg/mL
same,MIC,Streptococcus pyogenes [5],0.025 µg/mL
same,MIC,Staphylococcus aureus [6],0.195 µg/mL
same,MIC,Pseudomonas aeruginosa [7],12.5 µg/mL
same,MIC,Salmonella typhimurium,0.098 µg/mL
same,MIC,Escherichia coli [8],0.195 µg/mL
"CC(O)[C@H]1C(=O)N2C(C(=O)O)=C(SCCNC=N)C[C@H]12 (single isomer, unassigned) [IMIPENEM ANHYDROUS]",MIC,Serratia marcescens [9],0.2 µg/mL
same,MIC,Bacillus subtilis,0.03 µg/mL
same,MIC,Staphylococcus aureus [10],0.01 µg/mL
same,MIC,Escherichia coli [11],0.05 µg/mL
same,MIC,Pseudomonas aeruginosa [12],0.8 µg/mL
same,MIC,Priestia megaterium,0.03 µg/mL
same,MIC,Streptococcus agalactiae,0.01 µg/mL
same,MIC,Klebsiella aerogenes,0.098 µg/mL
same,MIC,Escherichia coli [13],0.1 µg/mL
same,MIC,Escherichia coli [1],0.391 µg/mL
same,MIC,Burkholderia cepacia,0.8 µg/mL
same,MIC,Staphylococcus aureus [2],0.013 µg/mL
same,MIC,Serratia marcescens [14],0.4 µg/mL
same,MIC,Providencia rettgeri [15],0.2 µg/mL
same,MIC,Serratia marcescens [16],0.8 µg/mL
same,MIC,Enterococcus durans,0.1 µg/mL
same,MIC,[17],0.4 µg/mL
same,MIC,Trueperella pyogenes,< 0.01 µg/mL
same,MIC,Escherichia coli [18],0.2 µg/mL
same,MIC,Enterobacter cloacae [3],0.098 µg/mL
same,MIC,Streptococcus pyogenes [4],< 0.01 µg/mL
same,MIC,Enterobacter cloacae [19],0.1 µg/mL
same,MIC,Staphylococcus aureus [20],< 0.01 µg/mL
same,MIC,Pseudomonas aeruginosa [21],0.8 µg/mL
same,MIC,Salmonella paratyphi,0.1 µg/mL
same,MIC,Enterobacter cloacae [22],0.1 µg/mL
same,MIC,Staphylococcus aureus [23],0.01 µg/mL
same,MIC,Proteus mirabilis [24],0.2 µg/mL
same,MIC,Pasteurella multocida,< 0.01 µg/mL
same,MIC,Streptococcus pyogenes [5],0.013 µg/mL
same,MIC,[25],0.01 µg/mL
same,MIC,Proteus mirabilis [26],0.1 µg/mL
same,MIC,Micrococcus luteus,0.01 µg/mL
same,MIC,Pseudomonas aeruginosa [27],0.8 µg/mL
same,MIC,Escherichia coli [28],0.1 µg/mL
same,MIC,Staphylococcus aureus [6],0.098 µg/mL
same,MIC,Klebsiella pneumoniae,0.2 µg/mL
same,MIC,Pseudomonas aeruginosa [7],0.781 µg/mL
same,MIC,Escherichia coli [29],0.2 µg/mL
same,MIC,Enterococcus faecium,< 0.01 µg/mL
same,MIC,Proteus vulgaris,0.1 µg/mL
same,MIC,[30],0.2 µg/mL
same,MIC,Salmonella typhi,0.05 µg/mL
same,MIC,Salmonella typhimurium,0.781 µg/mL
same,MIC,Escherichia coli [8],0.195 µg/mL
same,MIC,Providencia rettgeri [31],0.2 µg/mL
same,MIC,Salmonella,0.2 µg/mL
C[C@@H](O)[C@H]1C(=O)N2C(C(=O)O)=C(S[C@@H]3CN[C@H](C(=O)N(C)C)C3)[C@H](C)[C@H]12 [MEROPENEM],MIC,Serratia marcescens [9],0.05 µg/mL
same,MIC,Bacillus subtilis,0.05 µg/mL
same,MIC,Staphylococcus aureus [10],0.1 µg/mL
same,MIC,Escherichia coli [11],0.01 µg/mL
same,MIC,Pseudomonas aeruginosa [12],0.8 µg/mL
same,MIC,Priestia megaterium,0.05 µg/mL
same,MIC,Streptococcus agalactiae,0.05 µg/mL
same,MIC,Klebsiella aerogenes,0.049 µg/mL
same,MIC,Escherichia coli [13],0.03 µg/mL
same,MIC,Escherichia coli [1],0.025 µg/mL
same,MIC,Burkholderia cepacia,0.4 µg/mL
same,MIC,Staphylococcus aureus [2],0.098 µg/mL
same,MIC,Serratia marcescens [14],0.05 µg/mL
same,MIC,Providencia rettgeri [15],0.05 µg/mL
same,MIC,Serratia marcescens [16],0.2 µg/mL
same,MIC,Enterococcus durans,0.8 µg/mL
same,MIC,[17],0.05 µg/mL
same,MIC,Trueperella pyogenes,0.03 µg/mL
same,MIC,Escherichia coli [18],0.03 µg/mL
same,MIC,Enterobacter cloacae [3],0.025 µg/mL
same,MIC,Streptococcus pyogenes [4],0.013 µg/mL
same,MIC,Enterobacter cloacae [19],0.03 µg/mL
same,MIC,Staphylococcus aureus [20],0.05 µg/mL
same,MIC,Pseudomonas aeruginosa [21],0.2 µg/mL
same,MIC,Enterobacter cloacae [22],0.01 µg/mL
same,MIC,Staphylococcus aureus [23],0.1 µg/mL
same,MIC,Proteus mirabilis [24],0.1 µg/mL
same,MIC,Pasteurella multocida,0.05 µg/mL
same,MIC,Streptococcus pyogenes [5],< 0.01 µg/mL
same,MIC,[25],0.05 µg/mL
same,MIC,Proteus mirabilis [26],0.1 µg/mL
same,MIC,Micrococcus luteus,0.05 µg/mL
same,MIC,Pseudomonas aeruginosa [27],0.4 µg/mL
same,MIC,Escherichia coli [28],0.05 µg/mL
same,MIC,Staphylococcus aureus [6],0.098 µg/mL
same,MIC,Klebsiella pneumoniae,0.05 µg/mL
same,MIC,Pseudomonas aeruginosa [7],0.195 µg/mL
same,MIC,Escherichia coli [29],0.05 µg/mL
same,MIC,Enterococcus faecium,0.01 µg/mL
same,MIC,Proteus vulgaris,0.1 µg/mL
same,MIC,[30],0.03 µg/mL
same,MIC,Salmonella typhi,0.01 µg/mL
same,MIC,Salmonella typhimurium,0.025 µg/mL
same,MIC,Escherichia coli [8],0.025 µg/mL
same,MIC,Providencia rettgeri [31],0.1 µg/mL
same,MIC,Salmonella,0.1 µg/mL
